Test results as given in patent US9623125B2, “Controlled synthesis of polyglutamates with low polydispersity and versatile architectures” (Fundacion de la Comunidad Valenciana “Centro De …, priority 2011, dated 2017).

Assay: Stability of NCA under different storage conditions
Format: physicochemical
Set-up: key: a “−” symbol means the monomer was found already polymerized/degraded; “+” means monomer was found to be stable
Method: Absence of HCl in the purified NCAs was confirmed by means of a silver nitrate solution. The presence of HCl can be identified by the precipitation of silver chloride when some drops of a solution 1M of AgNO3 are added to a solution of the monomer. The purity of the NCA is the main criteria to ensure long term storage. This issue was corroborated with stability studies of the NCA under different storage conditions.

- Stability of NCA on storage (4° C., 5 d): +
- Stability of NCA on storage (4° C., 6 d): +
- Stability of NCA on storage (4° C., 8d): −
- Stability of NCA on storage (4° C., 10 d): −
- Stability of NCA on storage (4° C., 11 d): −
- Stability of NCA on storage (4° C., 20 d): −
- Stability of NCA on storage (4° C., 50 d): −
- Stability of NCA on storage (4° C./Ar, 5 d): +
- Stability of NCA on storage (4° C./Ar, 6 d): +
- Stability of NCA on storage (4° C./Ar, 7 d): +
- Stability of NCA on storage (4° C./Ar, 8d): +
- Stability of NCA on storage (4° C./Ar, 10 d): +
- Stability of NCA on storage (4° C./Ar, 11 d): +
- Stability of NCA on storage (R.T, 5 d): −
- Stability of NCA on storage (R.T, 6 d): −
- Stability of NCA on storage (R.T, 7 d): −
- Stability of NCA on storage (R.T, 8d): −
- Stability of NCA on storage (R.T, 10 d): −
- Stability of NCA on storage (R.T, 11 d): −
- Stability of NCA on storage (R.T, 20 d): −
- Stability of NCA on storage (R.T, 50 d): −
- Stability of NCA on storage (R.T/Ar, 6 d): −
- Stability of NCA on storage (R.T/Ar, 7 d): −
- Stability of NCA on storage (R.T/Ar, 8d): −
- Stability of NCA on storage (R.T/Ar, 10 d): −
- Stability of NCA on storage (R.T/Ar, 11 d): −
- Stability of NCA on storage (R.T/Ar, 20 d): −
- Stability of NCA on storage (R.T/Ar, 50 d): −
- Stability of NCA on storage (−23° C., 5 d): +
- Stability of NCA on storage (−23° C., 6 d): +
- Stability of NCA on storage (−23° C., 7 d): +
- Stability of NCA on storage (−23° C., 8d): +
- Stability of NCA on storage (−23° C., 10 d): +
- Stability of NCA on storage (−23° C., 11 d): +
- Stability of NCA on storage (−23° C., 20 d): +
- Stability of NCA on storage (−23° C., 50 d): +
- Stability of NCA on storage (−23° C./Ar, 5 d): +
- Stability of NCA on storage (−23° C./Ar, 6 d): +
- Stability of NCA on storage (−23° C./Ar, 7 d): +
- Stability of NCA on storage (−23° C./Ar, 8d): +
- Stability of NCA on storage (−23° C./Ar, 10 d): +
- Stability of NCA on storage (−23° C./Ar, 11 d): +
- Stability of NCA on storage (−23° C./Ar, 20 d): +
- Stability of NCA on storage (−23° C./Ar, 50 d): +
SMILES: O=C(CCC1NC(=O)OC1=O)OCc1ccccc1 (centres unmarked) [NCA, Benzyl 3-(2,5-dioxooxazol-4-il)propanoate]
